From BindingDB's records for patent US20240059675 (Boehringer Ingelheim International, 2024)

Legend:
[1] = target: Glutaminyl-peptide cyclotransferase (Homo sapiens, UniProt Q16769); test: Biochemical QPCT and QPCTL Activity Assay
[2] = target: Glutaminyl-peptide cyclotransferase-like protein (Homo sapiens, UniProt Q9NXS2); test: Biochemical QPCT and QPCTL Activity Assay
Glutaminyl-peptide cyclotransferase-like protein, sequence (Q9NXS2 whole entry): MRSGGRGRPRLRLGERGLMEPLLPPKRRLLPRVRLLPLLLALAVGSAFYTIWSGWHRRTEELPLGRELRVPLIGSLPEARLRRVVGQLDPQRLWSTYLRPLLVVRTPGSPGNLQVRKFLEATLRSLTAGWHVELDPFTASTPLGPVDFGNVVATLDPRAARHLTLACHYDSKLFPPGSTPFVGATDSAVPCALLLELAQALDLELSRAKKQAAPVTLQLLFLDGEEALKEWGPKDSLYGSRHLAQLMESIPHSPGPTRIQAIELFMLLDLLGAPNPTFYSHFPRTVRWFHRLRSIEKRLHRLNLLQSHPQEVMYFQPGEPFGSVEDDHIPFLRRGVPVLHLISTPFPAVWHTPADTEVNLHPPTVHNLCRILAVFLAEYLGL

Glutaminyl-peptide cyclotransferase, sequence (Q16769 whole entry): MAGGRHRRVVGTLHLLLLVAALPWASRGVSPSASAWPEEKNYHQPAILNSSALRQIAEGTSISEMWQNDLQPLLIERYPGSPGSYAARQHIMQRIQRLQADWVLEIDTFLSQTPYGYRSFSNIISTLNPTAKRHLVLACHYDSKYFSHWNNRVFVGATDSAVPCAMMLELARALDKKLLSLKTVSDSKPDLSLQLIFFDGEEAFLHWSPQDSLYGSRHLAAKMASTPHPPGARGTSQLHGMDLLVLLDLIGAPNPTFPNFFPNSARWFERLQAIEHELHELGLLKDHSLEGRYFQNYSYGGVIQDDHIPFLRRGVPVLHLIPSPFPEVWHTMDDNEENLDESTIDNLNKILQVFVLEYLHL

Cn1cnnc1C1(F)CCN(c2c(C#N)ccnc2-c2ccc(F)nc2)CC1 [US20240059675, Example 1]
IC50 [1]: 4 nM

Cn1cnnc1C1(F)CCN(c2c(C#N)ccnc2-c2cnc(F)c(OCC3CC3)c2)CC1 [US20240059675, Example 26]
IC50 [2]: 1 nM

Cn1cnnc1C1(F)CCN(c2c(C#N)ccnc2-c2cnc3nn(C(C)(C)C(F)(F)F)cc3c2)CC1 [US20240059675, Example 29]
IC50 [1]: 3 nM | IC50 [2]: 2 nM
